How the values were obtained:
[1] = Stability studies in simulated gastrointestinal fluids at various pHs; assay type: physicochemical
Protocol: Simulated gastrointestinal fluids (without enzymes and bile component) were prepared according to the USP methods. SGF (simulated gastric fluid) 1.2 pH (USP) and SIF (Simulating Intestinal fluid) 6.8 pH (USP) and 7.4 pH. To determine the chemical stability of SD formulations, the solutions in miliQ water was prepared and used. SD formulation was dissolved in aforesaid buffer solutions. Samples were collected at the predetermined time interval and filtered through 0.45 μm PVDF syringe filter. All samples were analysed in triplicate by HPLC.

[2] = Screening drug carrier Soluplus and optimizing solid dispersion: solubility of Edaravone by HPLC; assay type: physicochemical; details: 1%-6% w/v carrier solutions, 24 hours at room temperature (FIG. 2)
Protocol: To separate glass vials, 1%, 2%, 3%, 4%, 5% and 6% w/v solutions of different carriers was added, respectively. An excess amount of Edaravone was added to the above mentioned solutions followed by continuous rotation using a mechanical shaker (Axyos Technologies, Brisbane, Australia) throughout the test for 24 hours at room temperature. After reaching equilibrium, each vial was centrifuged at 3000 rpm for 5 min, and excess insoluble Edaravone was discarded by filtration through 0.45 μm PVDF syringe filter. Subsequently, the filtrates were diluted using methanol. The solubility analysis was performed in triplicate by using the previously developed and validated HPLC method.

CC1=NN(c2ccccc2)C(=O)C1 [Edaravone, 3-methyl-1-phenyl-2-pyrazol-5-one]
stability in biorelevant media ([1]; acidic pH (FIG. 8A)): maintained substantially constant
stability in biorelevant media ([1]; neutral to basic pH (FIG. 8A)): significant degradation
solubility of Edaravone in Soluplus carrier solutions [2]: solubility improvement in concentration-dependent manner

Source: patent US11020375B2, “Edaravone dosage form” (SUZHOU AUZONE BIOLOGICAL TECHNOLOGY CO., LTD, priority 2016, dated 2021)
